Read-outs that look alike come from different tables or passages of the source.
Legend:
CRP = test: Blood chemistry of a human volunteer: CRP; assay type: in vivo; settings: for CRP: 1,000 mg Ca-AKG + 900 mcg Vitamin A daily, oral, baseline 4.9
Description: METHOD EXAMPLE. Blood chemistry. […] The following results were obtained:

[1] = for Total/HDL: baseline 2.9; for Alkaline phosphatase: baseline 44; for HDL: baseline 64; for Triglycerides: baseline 85; for Glucose: baseline 95; for Cholesterol: baseline 184; for Platelets: baseline 359
Description: METHOD EXAMPLE. Blood chemistry. […] Prior to the start of dosing, a baseline blood draw is obtained for hematology, chemistry, CRP measurement, and metabolite analyses. After the start of dosing, blood draws are obtained monthly.

inflammatory cytokines = settings: female mice, 29 months
Experimental: METHOD EXAMPLE. Cytokine Levels in Aged Mice. Female mice (18 months) are divided into treatment and untreated groups. Baseline levels of 30 inflammatory cytokines are measured. […] Following treatment, levels of 30 inflammatory cytokines are measured from serum samples and compared to untreated controls.

[2] = compared to aged controls, p<0.05

## O=C(O)CCC(=O)C(=O)O [AKG, 2-oxopentanedioic acid]
CRP; human volunteer, baseline vs 12 months
  lowering of CRP: more than 10 fold
[1]; human volunteer, vs baseline
  levels of triglycerides: improves
  other important biological markers, such as platelets, glucose, PSA: does not adversely affect

## O.O=C([O-])CCC(=O)C(=O)[O-].[Ca+2] [Ca-AKG, calcium alpha-ketoglutarate monohydrate]
CRP; 10 Months
  CRP: 2.5 mg/L
CRP; 12 Months
  CRP: 0.4 mg/L
[1]; 10 Months
  Total/HDL: 2.4
  Alkaline phosphatase: 40 U/L
  HDL: 76 mg/dL
  Triglycerides: 49 mg/dL
  Glucose: 104 mg/dL
  Cholesterol: 184 mg/dL
  Platelets: 392 K/CUMM
[1]; 12 Months
  Total/HDL: 2.4
  Alkaline phosphatase: 30 U/L
  HDL: 76 mg/dL
  Triglycerides: 52 mg/dL
  Glucose: 99 mg/dL
  Cholesterol: 181 mg/dL
  Platelets: 332 K/CUMM
Inflammatory cytokines; [2]
  level of IL-3: significantly lower
  level of IL-7: significantly lower
  level of MIP-1β: significantly lower
  level of TNF-α: significantly lower
Inflammatory cytokines; treatment group vs 18 month baseline
  levels of IL-3, IL-7, TNF-α, and MIP-1β compared to the 18 month baseline: statistically indistinguishable

Reference: US20230255912A1, “COMPOSITIONS AND METHODS FOR TREATING CRP-MEDIATED DISEASES” (Ponce de Leon Health Designated Activity Company, priority 2020, published 2023)
